The target in experiment [1] is T1, human CCR6 (Homo sapiens, UniProt P51684).
T1 sequence (P51684 1-374): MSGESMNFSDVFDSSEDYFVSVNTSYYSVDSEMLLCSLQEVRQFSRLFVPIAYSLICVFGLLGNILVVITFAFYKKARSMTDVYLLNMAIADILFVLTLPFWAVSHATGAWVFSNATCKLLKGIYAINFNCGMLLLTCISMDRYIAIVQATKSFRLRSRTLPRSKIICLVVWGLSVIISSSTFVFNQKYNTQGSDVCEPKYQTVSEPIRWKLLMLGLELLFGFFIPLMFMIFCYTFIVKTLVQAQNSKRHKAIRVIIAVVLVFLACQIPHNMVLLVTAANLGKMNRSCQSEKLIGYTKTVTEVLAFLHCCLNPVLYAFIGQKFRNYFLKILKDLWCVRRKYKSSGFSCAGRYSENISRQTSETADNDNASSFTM
Briefly: CHO-K1 CCR6 chemotaxis assay towards CCL20. Format: cell-based. As to conditions: relative -Log IC50; CHO-K1 cells overexpressing human CCR6; migration towards 100 ng/ml CCL20; 4 h. The text has this: CHO-K1 CCR6 Chemotaxis Assay Towards CCL20
Cells overexpressing human CCR6 were used in the chemotaxis assay (DiscoverX, cAMP Hunter™ CHO-K1 CCR6 Gi Cell Line). Growth medium of these cells consisted of DMEM/F12, non-essential Amino acids (1×NEAA, Gibco 11140050), 10% FBS and 1× pen/strep (Gibco 15140). For the chemotaxis assay, Corning Transwell plates were used with a pore size of 8 m (Corning 351164). Cells were harvested using trypsin and diluted to 4*10^6 cells/ml in chemotaxis medium (DMEM, 0.25% BSA, pen/strep). Compounds were four-fold serially diluted in DMSO. Further dilutions were made in chemotaxis medium. Cells were incubated with test compounds for 30 min at 37° C. prior to initiation of the assay (2*10^6 cells/ml). Final DMSO concentration in the assay was 0.2%. Wells of the Transwell plates were filled with 200 μl chemotaxis medium containing 100 ng/ml CCL20 (R&D systems 360-MP). 50 μl of the cell/compound suspension was added to the inserts of the Transwell plates (100,000 cells/insert). The Transwell plates were placed in an incubator at 37° C., 5% CO2 for 4 h. After 4 h, the number of migrated cells was quantified using CellTiter Glo (Promega). Percentage inhibition values were calculated based on the low and high signal obtained with 0.2% DMSO in chemotaxis medium without and with CCL20, respectively. The relative −Log IC50 was determined with GraphPad Prism 9 using a four-parameter dose-response model.

In experiment [2] the target is T1, human CCR6. As to the kind of experiment: Human CCR6-CRE reporter assay. The conditions noted are these: relative -Log IC50; 293FT cells transfected with human CCR6 and CRE-luciferase reporter; 6 μM Forskolin, 6 nM CCL20; 5 h. Details: The second construct contained the open reading frame of human CCR6 in the pUNO1 backbone; host or cells: 293FT cells. Format: cell-based. The essentials:
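293FT cells transiently co-transfected with human CCR6 and a CRE-luc2P reporter, used 48 h later. Compounds incubated with cells in medium containing 6 μM Forskolin and 6 nM CCL20 (assay-medium levels), 0.1% DMSO final, 5 h at 37° C; luminescence read, relative −Log IC50 from four-parameter fit.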
In general terms: A reporter such as luciferase makes a cellular process visible.

For `CC(C)c1cnc2ccc(-c3ccc(S(=N)(=O)[C@H]4CC[C@H](Nc5ccc(S(F)(F)(F)(F)F)cc5)CC4)cc3)cn12` (relative stereo) [Example 118, {4-[3-(propan-2-yl)imidazo[1,2-a]pyridin-6-yl]phenyl}[trans-4-{[4-(pentafluoro-λ^6-sulfanyl)phenyl]Amino}cyclohexyl](imino)-λ^6-sulfanone], the IC50 (usually the point on the concentration scale where inhibition reaches its midpoint) against human CCR6 [1] is 0.398 µM; at human CCR6 [2], 0.0794 µM.

As for `N#Cc1c[nH]c2ccc(-c3ccc(S(=N)(=O)[C@H]4CC[C@H](Nc5ccc(S(F)(F)(F)(F)F)cc5)CC4)cc3)cc12` (single isomer, unassigned; (+)) [Example 126, (+)-5-(4-{[trans-4-{[4-(pentafluoro-λ^6-sulfanyl)phenyl]Amino}cyclohexyl]sulfonimidoyl}phenyl)-1H-indole-3-carbonitrile], the IC50 on human CCR6 [1] and at human CCR6 [2] was 0.126 µM each time. For the molecule `N=S(=O)(c1ccc(-c2ccc3nccn3c2)cc1)[C@H]1CC[C@H](Nc2ccc(S(F)(F)(F)(F)F)cc2)CC1` (single isomer, unassigned; (+)) [Example 128, (+)-(4-{imidazo[1,2-a]pyridin-6-yl}phenyl)[trans-4-{[4-(pentafluoro-λ^6-sulfanyl)phenyl]Amino}cyclohexyl](imino)-λ^6-sulfanone], the IC50 against human CCR6 [1] is 0.251 µM; against human CCR6 [2] it was 0.126 µM. Taken in the same sequence, the figures for `N#Cc1c[nH]c2ccc(-c3ccc(S(=N)(=O)[C@H]4CC[C@H](Nc5ccc(S(F)(F)(F)(F)F)cc5)CC4)cc3)cc12` (single isomer, unassigned; (-)) [Example 127, (−)-5-(4-{[trans-4-{[4-(pentafluoro-λ^6-sulfanyl)phenyl]Amino}cyclohexyl]sulfonimidoyl}phenyl)-1H-indole-3-carbonitrile] were 0.251 µM and 0.316 µM. Taken in the same sequence, the figures for `N=S(=O)(c1ccc(-c2ccc3nccn3c2)cc1)[C@H]1CC[C@H](Nc2ccc(S(F)(F)(F)(F)F)cc2)CC1` (single isomer, unassigned; (-)) [Example 129, (−)-(4-{imidazo[1,2-a]pyridin-6-yl}phenyl)[trans-4-{[4-(pentafluoro-λ^6-sulfanyl)phenyl]Amino}cyclohexyl](imino)-λ^6-sulfanone] were 0.316 µM and 0.2 µM. In the case of `NC(=O)c1cc(-c2ccc(S(=O)(=O)N3CC[C@H](Nc4ccc(S(F)(F)(F)(F)F)cc4)[C@@H](F)C3)cc2)ccn1` (stereo in doubt) [Example 83, 4-(4-{[(3S,4S)-3-fluoro-4-{[4-(pentafluoro-λ^6-sulfanyl)phenyl]Amino}piperidin-1-yl]sulfonyl}phenyl)pyridine-2-carboxamide], the IC50 is 0.0501 µM against human CCR6 [1] and 0.316 µM against human CCR6 [2]. Taken in the same sequence, the figures for `O=S(=O)(c1ccc(-c2ccc3nccn3c2)cc1)N1CCC(Nc2ccc(S(F)(F)(F)(F)F)cc2)CC1` [Example 1, 1-(4-{imidazo[1,2-a]pyridin-6-yl}benzenesulfonyl)-N-[4-(pentafluoro-λ^6-sulfanyl)phenyl]piperidin-4-amine] were 0.0794 µM and 0.126 µM. Taken in the same sequence, the figures for `Cc1cnc2ccc(-c3ccc(S(=O)(=O)[C@H]4CC[C@H](Nc5ccc(S(F)(F)(F)(F)F)cc5)CC4)cc3)cn12` [Example 13, 4-(pentafluoro-λ^6-sulfanyl)-N-[trans-4-(4-{3-methylimidazo[1,2-a]pyridin-6-yl}benzenesulfonyl)cyclohexyl]aniline] were 0.00501 µM and 0.0794 µM. Taken in the same sequence, the figures for `O=C1Cc2cc(-c3ccc(S(=O)(=O)[C@H]4CC[C@H](Nc5ccc(S(F)(F)(F)(F)F)cc5)CC4)cc3)ccc2N1` [Example 14, 5-(4-{[trans-4-{[4-(pentafluoro-λ^6-sulfanyl)phenyl]Amino}cyclohexyl]sulfonyl}phenyl)-2,3-dihydro-1H-indol-2-one] were 1.26 µM and 0.2 µM. Turning to `CN(C)C(=O)c1ccc(-c2ccc(S(=O)(=O)[C@H]3CC[C@H](Nc4ccc(S(F)(F)(F)(F)F)cc4)CC3)cc2)cc1` [Example 15, N,N-dimethyl-4′-{[trans-4-{[4-(pentafluoro-λ^6-sulfanyl)phenyl]Amino}cyclohexyl]sulfonyl}-[1,1′-biphenyl]-4-carboxamide], the IC50 against human CCR6 [1] was 0.0631 µM; on human CCR6 [2], 0.0794 µM. Regarding `CNC(=O)c1ccc(-c2ccc(S(=O)(=O)[C@H]3CC[C@H](Nc4ccc(S(F)(F)(F)(F)F)cc4)CC3)cc2)cc1` [Example 16, N-methyl-4′-{[trans-4-{[4-(pentafluoro-λ^6-sulfanyl)phenyl]Amino}cyclohexyl]sulfonyl}-[1,1′-biphenyl]-4-carboxamide], the IC50 on human CCR6 [1] is 0.0126 µM; against human CCR6 [2], 0.0631 µM. Taken in the same sequence, the figures for `CN(C)C(=O)c1cccc(-c2ccc(S(=O)(=O)[C@H]3CC[C@H](Nc4ccc(S(F)(F)(F)(F)F)cc4)CC3)cc2)c1` [Example 19, N,N-dimethyl-4′-{[trans-4-{[4-(pentafluoro-λ^6-sulfanyl)phenyl]Amino}cyclohexyl]sulfonyl}-[1,1′-biphenyl]-3-carboxamide] were 0.398 µM and 0.0631 µM. On to `CNC(=O)c1cccc(-c2ccc(S(=O)(=O)[C@H]3CC[C@H](Nc4ccc(S(F)(F)(F)(F)F)cc4)CC3)cc2)c1` [Example 21, N-methyl-4′-{[trans-4-{[4-(pentafluoro-λ^6-sulfanyl)phenyl]Amino}cyclohexyl]sulfonyl}-[1,1′-biphenyl]-3-carboxamide], for which the IC50 is 0.0126 µM against human CCR6 [1] and 0.0316 µM against human CCR6 [2]. For the molecule `CNC(=O)c1ccc(-c2ccc(S(=O)(=O)[C@H]3CC[C@H](Nc4ccc(S(F)(F)(F)(F)F)cc4)CC3)cc2)cn1` [Example 22, N-methyl-5-(4-{[trans-4-{[4-(pentafluoro-λ^6-sulfanyl)phenyl]Amino}cyclohexyl]sulfonyl}phenyl)pyridine-2-carboxamide], the IC50 against human CCR6 [1] is 0.1 µM; at human CCR6 [2], 0.0398 µM. Taken in the same sequence, the figures for `NC(=O)c1cccc(-c2ccc(S(=O)(=O)[C@H]3CC[C@H](Nc4ccc(S(F)(F)(F)(F)F)cc4)CC3)cc2)c1` [Example 23, 4′-{[trans-4-{[4-(pentafluoro-λ^6-sulfanyl)phenyl]Amino}cyclohexyl]sulfonyl}-[1,1′-biphenyl]-3-carboxamide] were 0.0501 µM and 0.0501 µM. Taken in the same sequence, the figures for `O=S(=O)(c1ccc(-c2cn3ccnc3cn2)cc1)N1CCC(Nc2ccc(S(F)(F)(F)(F)F)cc2)CC1` [Example 24, 1-(4-{imidazo[1,2-a]pyrazin-6-yl}benzenesulfonyl)-N-[4-(pentafluoro-λ^6-sulfanyl)phenyl]piperidin-4-amine] were 0.501 µM and 0.2 µM. Taken in the same sequence, the figures for `CC(C)c1nnc2ccc(-c3ccc(S(=O)(=O)N4CCC(Nc5ccc(S(F)(F)(F)(F)F)cc5)CC4)cc3)cn12` [Example 28, N-[4-(pentafluoro-λ^6-sulfanyl)phenyl]-1-{4-[3-(propan-2-yl)-[1,2,4]triazolo[4,3-a]pyridin-6-yl]benzenesulfonyl}piperidin-4-amine] were 0.00501 µM and 0.0316 µM. For the molecule `CC(C)c1nnc2ccc(-c3ccc(S(=N)(=O)[C@H]4CC[C@H](Nc5ccc(S(F)(F)(F)(F)F)cn5)CC4)cc3)cn12` (stereo partly drawn) [Example 171, {4-[3-(propan-2-yl)-[1,2,4]triazolo[4,3-a]pyridin-6-yl]phenyl}[trans-4-{[5-(pentafluoro-λ^6-sulfanyl)pyridin-2-yl]amino}cyclohexyl](imino)-λ^6-sulfanone], the IC50 against human CCR6 [2] is 0.1 µM.

At human CCR6 [2], `Cc1cc(-c2ccc(S(=O)(=O)[C@H]3CC[C@H](Nc4ccc(S(F)(F)(F)(F)F)cn4)CC3)cc2)cn2c(C(C)C)nnc12` [Example 181, 5-(pentafluoro-λ^6-sulfanyl)-N-[trans-4-{4-[8-methyl-3-(propan-2-yl)-[1,2,4]triazolo[4,3-a]pyridin-6-yl]benzenesulfonyl}cyclohexyl]pyridin-2-amine] showed an IC50 of 0.0251 µM.

Source of the values: patent publication US20260070902A1, “SULFONYL DERIVATIVES AS CCR6 INHIBITORS” (Hoffmann-La Roche Inc., priority 2022, published 2026).
